Reference: PubChem BioAssay (NCI)
“And” between values parts separate entries of the source, which are not always exact repeats. Equal values may be shown once.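 Dose response: 5 concentrations. Exposure: 48 h. Format: 96-well plates. Endpoint: linear interpolation; highest concentration if not reached. GI50 = concentration required for 50% inhibition of growth. TGI is the concentration that stops growth completely.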

Key:
Test in all cases: growth of human tumour cells (NCI), 48 h
[1] = system: UACC-257 melanoma
[2] = system: NCI-H460 lung
[3] = system: SNB-19 CNS
[4] = system: DMS 114 small cell lung
[5] = system: M19-MEL melanoma
[6] = system: NCI-H226 lung
[7] = system: SF-295 CNS
[8] = system: RXF 393 renal
[9] = system: LXFL 529 NSCLC
[10] = system: SK-MEL-28 melanoma
[11] = system: U251 CNS
[12] = system: SK-OV-3 ovarian
[13] = system: OVCAR-3 ovarian
[14] = system: 786-0 renal
[15] = system: HT29 colon
[16] = system: SR leukemia
[17] = system: MOLT-4 leukemia
[18] = system: OVCAR-5 ovarian
[19] = system: DLD-1 colon
[20] = system: IGROV1 ovarian
[21] = system: KM12 colon
[22] = system: EKVX NSCLC
[23] = system: HCT-15 colon
[24] = system: OVCAR-8 ovarian
[25] = system: HOP-92 NSCLC
[26] = system: RPMI-8226 leukemia
[27] = system: SF-268 CNS
[28] = system: CCRF-CEM leukemia
[29] = system: NCI-H23 lung
[30] = system: SN12C renal
[31] = system: K-562 leukemia
[32] = system: SK-MEL-5 melanoma
[33] = system: UO-31 renal
[34] = system: ACHN renal
[35] = system: COLO 205 colon
[36] = system: A549 NSCLC
[37] = system: NCI-H522 lung
[38] = system: TK-10 renal
[39] = system: HCC-2998 colon
[40] = system: MALME-3M melanoma
[41] = system: SF-539 CNS
[42] = system: SK-MEL-2 melanoma
[43] = system: M14 melanoma
[44] = system: HOP-18 NSCLC
[45] = system: XF 498 CNS
[46] = system: HL-60(TB) leukemia
[47] = system: SW-620 colon
[48] = system: SNB-78 CNS
[49] = system: SNB-75 CNS
[50] = system: OVCAR-4 ovarian
[51] = system: KM20L2 colon
[52] = system: UACC-62 melanoma
[53] = system: LOX IMVI melanoma
[54] = system: DMS 273 small cell lung
[55] = system: HOP-62 NSCLC
[56] = system: HCT-116 colon
[57] = system: A498 renal
[58] = system: CAKI-1 renal

C#C[C@@]1(O)CCCC2=CC(=O)C[C@]21C
TGI [1]: > 100 µM
TGI [2]: > 100 µM
TGI [3]: > 100 µM
TGI [4]: > 100 µM
TGI [5]: > 100 µM
TGI [6]: > 100 µM
TGI [7]: > 100 µM
TGI [8]: > 100 µM
TGI [9]: > 100 µM
TGI [10]: > 100 µM
TGI [11]: > 100 µM
TGI [12]: > 100 µM
TGI [13]: > 100 µM
TGI [14]: > 100 µM
TGI [15]: > 100 µM
TGI [16]: > 100 µM
TGI [17]: > 100 µM
TGI [18]: > 100 µM
TGI [19]: > 100 µM
TGI [20]: > 100 µM
TGI [21]: > 100 µM
TGI [22]: > 100 µM
TGI [23]: > 100 µM
TGI [24]: > 100 µM
TGI [25]: > 100 µM
TGI [26]: > 100 µM
TGI [27]: > 100 µM
TGI [28]: > 100 µM
TGI [29]: > 100 µM
TGI [30]: > 100 µM
TGI [31]: > 100 µM
TGI [32]: > 100 µM
TGI [33]: > 100 µM
TGI [34]: > 100 µM
TGI [35]: > 100 µM
TGI [36]: > 100 µM
TGI [37]: > 100 µM
TGI [38]: > 100 µM
TGI [39]: > 100 µM
TGI [40]: > 100 µM
TGI [41]: > 100 µM
TGI [42]: > 100 µM
TGI [43]: > 100 µM
TGI [44]: > 100 µM
TGI [45]: > 100 µM
TGI [46]: > 100 µM
TGI [47]: > 100 µM

O=C(O)C(Cc1cnc[nH]1)N=Cc1nc(-c2ccccc2)oc1O (stereo not drawn)
TGI [48]: > 100 µM
TGI [49]: > 100 µM
TGI [1]: > 100 µM
TGI [50]: > 100 µM
TGI [51]: > 100 µM
TGI [52]: > 100 µM
TGI [2]: > 100 µM
TGI [3]: > 100 µM
TGI [4]: > 100 µM
TGI [5]: > 100 µM
TGI [6]: > 100 µM
TGI [7]: > 100 µM
TGI [8]: > 100 µM
TGI [9]: > 100 µM
TGI [53]: > 100 µM
TGI [54]: > 100 µM
TGI [10]: > 100 µM
TGI [11]: > 100 µM
TGI [12]: > 100 µM
TGI [13]: > 100 µM
TGI [14]: > 100 µM
TGI [15]: > 100 µM
TGI [16]: > 100 µM
TGI [17]: > 100 µM
TGI [18]: > 100 µM
TGI [19]: > 100 µM
TGI [20]: > 100 µM
TGI [22]: > 100 µM
TGI [23]: > 100 µM
TGI [24]: > 100 µM
TGI [25]: > 100 µM
TGI [26]: > 100 µM
TGI [27]: > 100 µM
TGI [28]: > 100 µM
TGI [55]: > 100 µM
TGI [29]: > 100 µM
TGI [30]: > 100 µM
TGI [31]: > 100 µM
TGI [32]: > 100 µM
TGI [33]: > 100 µM
TGI [34]: > 100 µM
TGI [35]: > 100 µM
TGI [36]: > 100 µM
TGI [37]: > 100 µM
TGI [38]: > 100 µM
TGI [39]: > 100 µM
TGI [56]: > 100 µM
TGI [40]: > 100 µM
TGI [41]: > 100 µM
TGI [57]: > 100 µM
TGI [42]: > 100 µM
TGI [43]: > 100 µM
TGI [45]: > 100 µM
TGI [46]: > 100 µM
TGI [47]: > 100 µM

Cn1cnc([N+](=O)[O-])c1SC1=NCCS1
TGI [48]: > 100 µM
TGI [49]: > 100 µM
TGI [1]: > 100 µM
TGI [50]: > 100 µM
TGI [52]: > 100 µM
TGI [2]: > 100 µM
TGI [3]: > 100 µM
TGI [5]: > 100 µM
TGI [6]: > 100 µM
TGI [7]: > 100 µM
TGI [9]: > 100 µM
TGI [53]: 39 µM
TGI [54]: > 100 µM
TGI [10]: > 100 µM
TGI [11]: > 100 µM
TGI [12]: > 100 µM
TGI [13]: > 100 µM
TGI [14]: > 100 µM
TGI [15]: > 100 µM
TGI [16]: > 100 µM
TGI [17]: > 100 µM
TGI [18]: > 100 µM
TGI [19]: > 100 µM
TGI [20]: > 100 µM
TGI [21]: > 100 µM
TGI [22]: > 100 µM
TGI [24]: > 100 µM
TGI [25]: > 100 µM
TGI [26]: > 100 µM
TGI [27]: > 100 µM
TGI [28]: > 100 µM
TGI [55]: > 100 µM
TGI [58]: > 100 µM
TGI [29]: > 100 µM
TGI [30]: > 100 µM
TGI [31]: > 100 µM
TGI [32]: > 100 µM
TGI [33]: > 100 µM
TGI [34]: > 100 µM
TGI [35]: > 100 µM
TGI [36]: > 100 µM
TGI [37]: 41.7 µM
TGI [38]: > 100 µM
TGI [39]: > 100 µM
TGI [56]: > 100 µM
TGI [40]: 70.2 µM
TGI [41]: > 100 µM
TGI [57]: > 100 µM
TGI [42]: > 100 µM
TGI [43]: > 100 µM
TGI [44]: > 100 µM
TGI [45]: > 100 µM
TGI [47]: > 100 µM

CCCCCCCCCCCCCC(=O)OC(/C=C/C(C)C)C(O)C(O)C(OC)C(=O)NC1CCCCNC1=O (stereo not drawn)
TGI [48]: 9.18 µM
GI50 [49]: 4.63 µM
TGI [49]: 9.46 µM
GI50 [1]: 6.37 µM
TGI [1]: 6.5 µM
GI50 [50]: 3.97 µM
TGI [50]: 6.76 µM
TGI [51]: 4.89 µM
GI50 [52]: 4.28 µM
TGI [52]: 3.74 µM
GI50 [2]: 0.461 µM
TGI [2]: 3.85 µM
TGI [3]: 9.08 µM
TGI [4]: 3.85 µM
TGI [6]: 8.95 µM
GI50 [7]: 2.92 µM
TGI [7]: 4.42 µM
TGI [8]: 3.38 µM
TGI [9]: 4.88 µM
GI50 [53]: 1.73 µM
TGI [53]: 4.38 µM
TGI [54]: 2.81 µM
TGI [10]: 5.11 µM
GI50 [11]: 2.47 µM
TGI [11]: 4.3 µM
TGI [12]: 10.4 µM
GI50 [13]: 6.19 µM
TGI [13]: 5.38 µM
GI50 [14]: 1.56 µM
TGI [14]: 3.93 µM
GI50 [15]: 4.03 µM
TGI [15]: 4.51 µM
GI50 [16]: 0.381 µM
TGI [16]: 2.04 µM and 9.05 µM
GI50 [17]: 5.57 µM
TGI [17]: 10.5 µM
TGI [18]: 9.63 µM
TGI [19]: 5.07 µM
GI50 [20]: 0.65 µM
TGI [20]: 5.15 µM
GI50 [21]: 3.92 µM
TGI [21]: 4.59 µM
TGI [22]: 11.5 µM
GI50 [23]: 4.25 µM
TGI [23]: 4.8 µM
GI50 [24]: 2.77 µM
TGI [24]: 5.08 µM
TGI [25]: 3.76 µM
TGI [26]: 15.9 µM
TGI [27]: 3.63 µM
GI50 [28]: 5.7 µM
TGI [28]: 11.9 µM
GI50 [55]: 3.88 µM
TGI [55]: 6.8 µM
TGI [58]: 3.81 µM
GI50 [29]: 8.82 µM
TGI [29]: 5 µM
TGI [30]: 4.39 µM
GI50 [31]: 2.68 µM
TGI [31]: 10.2 µM
GI50 [32]: 6.53 µM
TGI [32]: 5.25 µM
TGI [33]: 4.98 µM
GI50 [34]: 4.1 µM
TGI [34]: 4.76 µM
TGI [35]: 3.69 µM
GI50 [36]: 1.12 µM
TGI [36]: 4.28 µM
GI50 [37]: 5.27 µM
TGI [37]: 4.23 µM
GI50 [38]: 8.26 µM
TGI [38]: 11.6 µM
GI50 [39]: 5.64 µM
TGI [39]: 4.13 µM
GI50 [56]: 1.22 µM
TGI [56]: 3.97 µM
TGI [40]: 5.36 µM
GI50 [41]: 2.29 µM
TGI [41]: 5.22 µM
TGI [57]: 14.6 µM
TGI [42]: 6.03 µM
GI50 [43]: 2.61 µM
TGI [43]: 4.35 µM
TGI [44]: 10.5 µM
TGI [45]: 5.47 µM
TGI [46]: 10.4 µM
GI50 [47]: 4.4 µM
TGI [47]: 4.46 µM
